Assay results published in patent publication US20080306007A1, “AGENTS FOR PROPHYLAXIS OR TREATMENT OF NEUROLOGICAL RELATED DISEASES AND CONDITIONS” (Newcastle Innovation Limited, priority 2007, published 2008).

Assays:
[1] = system: synaptosomes (SV retrieval from the plasma membrane); test: FM2-10 SV internalisation assay (purified SVs from synaptosomes); type: cell-based, rat
Procedure: (§1) Loading of FM2-10 (Molecular Probes) into recycling synaptosomal SVs was measured as previously described. Data is presented as Ca^2+-dependent FM2-10 unloading, which is the difference between release after loading in plus and minus Ca^2+ solutions. Where indicated, synaptosomes were preincubated with penetratin peptide for 30 min prior to stimulation of FM2-10 loading. […] The same assay was used to monitor the effect of penetratin peptide on SV exocytosis. However, in this instance, the synaptosomes were loaded with FM2-10 in plus Ca^2+ Krebs-like solution and, where indicated, were preincubated with penetratin peptide for 30 min prior to stimulation of FM2-10 unloading. Data is presented as Ca^2+-dependent FM2-10 unloading. The SV internalisation assay was performed as previously described.
If SVE was arrested before SV fission occurred, […]. SVs were purified and their fluorescence values were corrected for dye uptake in the absence of Ca^2+ (Ca^2+-dependent) and normalised to control (n=3, mean ±s.e.m.).

[2] = system: synaptosomes (synaptic vesicle turnover); test: SV turnover assay (FM2-10 loading/unloading) in synaptosomes; type: cell-based, rat
Procedure: (§2) In all SV recycling studies synaptosomes were prepared from rat cerebral cortex by centrifugation on discontinuous percoll gradients (Dunkley et al. 1986). The glutamate release assay was performed as described before (Cousin and Robinson 2000a). Data is presented as Ca^2+-dependent glutamate release, calculated as the difference between release in plus and minus Ca^2+ solutions. Penetratin peptides (Genemed Synthesis) were preincubated with the synaptosomes for 30 min before stimulation and had no effect on Ca^2+-independent release of glutamate.
as §1
SVE in synaptosomes was measured to determine whether the phosphorylation sites in dynamin I play a direct role in SVE. Since isolated nerve terminals cannot be transfected with DNA, a membrane-permeable peptide strategy was employed. Mimetic peptides (DynI769-784AA (SEQ ID No. 8) and DynI769-784EE (SEQ ID No. 9)) were designed corresponding to the amino acid sequence of the dynamin I phospho-box (FIG. 5a) and were tagged with a penetratin heptapeptide RRMKWKK (SEQ ID No. 12) to facilitate their delivery into synaptosomes. Briefly, synaptosomes were preincubated in the presence or absence of either penetratin peptide (250 μM) prior to FM2-10 loading stimulated by 30 mM KCl. Accumulated FM2-10 was unloaded by another KCl stimulus (indicated by the solid bar). […] If the phosphorylation-regulated syndapin I interaction itself is essential for SVE, the penetratin-linked peptides may inhibit the process. […] The DynI769-784AA peptide (250 μM) inhibited turnover by more than 40% (57.1±2.1% of control), compared to less than 20% with the DynI769-784EE peptide (250 μM, 81.1±2.4% of control).

[3] = system: synaptosomes (SV exocytosis); test: FM2-10 unloading (SV exocytosis) assay in synaptosomes; type: cell-based, rat; details: evoked by 30 mM KCl; peptide preincubated 30 min before unloading
Procedure: as §1
A block in SV turnover cannot be ascribed to an inhibition of SVE until an effect on exocytosis has been excluded. Two independent exocytosis assays were conducted to assess this: endogenous glutamate release and FM2-10 unloading. […] Finally, the extent of SVE inhibition by the peptides was quantified by calculating “retrieval efficiency” which takes into account prior exocytosis; a value of less than one indicating a selective SVE inhibition. […]

U2OS cells = test: Transferrin (Tfn) endocytosis (RME) in U2OS cells; type: cell-based; details: 15 min peptide preincubation at various concentrations, Tfn 15 min at 37° C.
Procedure: Briefly, non-neuronal U2OS cells were preincubated with vehicle only or each peptide at various concentrations for 15 min. Cells were then incubated with Tfn for 15 min at 37° C., acid washed, fixed and internalized Tfn was detected by fluorescence microscopy. Quantitative analysis of endocytosis in the presence of different concentrations of the peptides is shown as mean fluorescence as a percent of fluorescence in control cells. The results shown in FIG. 11 are representative of 2 independent experiments. Endocytosis in control cells (no peptide) is expressed as 100%.

[4] = system: synaptosomes (SV exocytosis); test: KCl-evoked Ca2+-dependent glutamate release assay in synaptosomes; type: cell-based, rat; details: peptide preincubated 30 min; KCl stimulation
Procedure: as §2
A block in SV turnover cannot be ascribed to an inhibition of SVE until an effect on exocytosis has been excluded. Two independent exocytosis assays were conducted to assess this: endogenous glutamate release and FM2-10 unloading. Neither the DynI769-784AA nor DynI769-784EE peptide had any significant effect on KCl-evoked Ca^2+-dependent glutamate release (DynI769-784AA […]±8.4% of control; DynI769-784EE […]±9.5% of control, FIG. 5c). Both peptides had small effects on FM2-10 unloading evoked by 30 mM KCl (DynI769-784AA −81.1±0.8% of control; DynI769-784EE −82.3±0.6% of control, FIG. 5d). Finally, the extent of SVE inhibition by the peptides was quantified by calculating “retrieval efficiency” which takes into account prior exocytosis; a value of less than one indicating a selective SVE inhibition. […]

[5] = target: T1, Syndapin I binding to DynI-PRD (Rattus norvegicus, UniProt Q9Z0W5); test: GST-DynI-PRD pull-down from rat brain lysate with peptide competition: syndapin I; details: increasing amounts of peptide
T1 construct: from tissue; host or cells: target from total rat brain extract; GST-DynI-PRD made in house in Escherichia coli
T1 sequence (Q9Z0W5 whole entry): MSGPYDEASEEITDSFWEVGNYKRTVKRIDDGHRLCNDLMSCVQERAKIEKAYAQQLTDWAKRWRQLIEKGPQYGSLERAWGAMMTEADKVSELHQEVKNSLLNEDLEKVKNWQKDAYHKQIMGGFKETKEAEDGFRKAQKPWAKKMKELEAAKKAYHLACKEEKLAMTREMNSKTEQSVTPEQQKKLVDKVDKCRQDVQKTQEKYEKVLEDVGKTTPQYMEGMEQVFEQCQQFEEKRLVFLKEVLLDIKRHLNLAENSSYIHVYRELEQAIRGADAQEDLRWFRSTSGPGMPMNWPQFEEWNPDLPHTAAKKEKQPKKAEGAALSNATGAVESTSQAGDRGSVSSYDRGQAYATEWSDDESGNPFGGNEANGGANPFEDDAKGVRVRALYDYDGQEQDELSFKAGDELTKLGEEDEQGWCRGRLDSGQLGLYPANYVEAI
Procedure: (§3) Total rat brain extract was prepared by homogenising brain tissue in ice-cold lysis buffer (1% Triton X-100, 150 mM NaCl, 25 mM Tris pH 7.4, 1 mM EDTA, 1 mM EGTA, 20 μg/ml leupeptin, 1 mM phenylmethylsulfonyl fluoride and EDTA-free Complete protease inhibitor (Roche)). The homogenate was centrifuged twice at 75,600 g for 30 min at 4° C. The supernatant was pre-cleared by addition of GSH-sepharose beads for 1 h, pelleted at 50 g for 5 min at 4° C., and the supernatant collected. GST-DynI-PRD recombinant proteins were then incubated with an equal amount of tissue lysate at 4° C. for 1 h. Beads were washed extensively with ice-cold 20 mM Tris pH 7.4 containing 1 mM EGTA, eluted in 2×SDS-PAGE sample buffer, resolved on 7.5-15% gradient SDS gels and stained with colloidal Coomassie Blue. Identification of proteins was by matrix-assisted laser desorption ionization time-of-flight mass spectrometry (MALDI-TOF MS). Some peptides were sequenced by tandem MS/MS.
(§4) A common characteristic of most binding sites for SH3 domains is the presence of the core amino acid motif PxxP, which is often followed or preceded by a basic Arg residue. There are 13 such motifs in the dynamin I PRD (numbered from site 1 at the N-terminus of the PRD at Pro-753 in dynamin I). […]

[6] = target: T2, endophilin I binding to DynI-PRD (Rattus norvegicus, UniProt O35179); test: GST-DynI-PRD pull-down with peptide competition: endophilin I; details: increasing amounts of peptide
T2 construct: from tissue; host or cells: target from total rat brain extract; GST-DynI-PRD made in house in Escherichia coli
T2 sequence (O35179 whole entry): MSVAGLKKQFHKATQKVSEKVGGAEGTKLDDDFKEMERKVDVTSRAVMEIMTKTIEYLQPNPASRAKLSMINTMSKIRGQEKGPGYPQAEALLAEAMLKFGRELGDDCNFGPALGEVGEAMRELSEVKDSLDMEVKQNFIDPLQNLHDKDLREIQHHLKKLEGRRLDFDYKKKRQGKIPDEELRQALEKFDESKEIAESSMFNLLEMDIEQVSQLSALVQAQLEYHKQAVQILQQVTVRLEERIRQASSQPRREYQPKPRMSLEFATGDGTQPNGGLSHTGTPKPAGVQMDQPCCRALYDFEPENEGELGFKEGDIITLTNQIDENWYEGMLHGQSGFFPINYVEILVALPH
Procedure: as §3, §4

[7] = target: T3, amphiphysin I binding to DynI-PRD (Rattus norvegicus, UniProt O08838); test: GST-DynI-PRD pull-down with peptide competition: amphiphysin I
T3 construct: it is full-length amphiphysin I being detected in the present study; from tissue; host or cells: target from total rat brain extract; GST-DynI-PRD made in house in Escherichia coli
T3 sequence (O08838 1-683): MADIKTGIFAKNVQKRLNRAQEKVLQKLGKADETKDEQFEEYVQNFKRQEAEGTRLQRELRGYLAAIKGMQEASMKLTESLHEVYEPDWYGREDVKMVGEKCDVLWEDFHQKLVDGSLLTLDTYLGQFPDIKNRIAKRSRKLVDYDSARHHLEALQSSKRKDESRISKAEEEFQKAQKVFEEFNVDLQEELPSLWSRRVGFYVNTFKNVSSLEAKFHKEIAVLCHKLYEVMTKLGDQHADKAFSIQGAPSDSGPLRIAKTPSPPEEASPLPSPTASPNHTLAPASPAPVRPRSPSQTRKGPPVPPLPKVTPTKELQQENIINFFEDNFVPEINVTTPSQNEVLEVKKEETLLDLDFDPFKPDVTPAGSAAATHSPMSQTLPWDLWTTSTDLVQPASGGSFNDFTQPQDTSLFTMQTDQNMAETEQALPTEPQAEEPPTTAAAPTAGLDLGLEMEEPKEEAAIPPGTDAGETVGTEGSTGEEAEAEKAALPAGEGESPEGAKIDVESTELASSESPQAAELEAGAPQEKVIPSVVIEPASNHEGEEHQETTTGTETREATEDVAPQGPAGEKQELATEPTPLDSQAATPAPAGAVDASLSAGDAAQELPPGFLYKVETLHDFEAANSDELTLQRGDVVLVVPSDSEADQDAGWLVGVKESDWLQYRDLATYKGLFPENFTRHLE
Procedure: as §3
A common characteristic of most binding sites for SH3 domains is the presence of the core amino acid motif PxxP, which is often followed or preceded by a basic Arg residue. […]
The binding site of amphiphysin I has previously been mapped to a single site, site 9 (FIG. 8), within the dynamin I-PRD (Grabs et al. 1997; Vallis et al. 1999). […] However, it is full-length amphiphysin I being detected in the present study. […]

[8] = system: p85 (the regulatory subunit of PI-3 kinase); test: GST-DynI-PRD pull-down with peptide competition: p85; type: binding, rat; details: increasing amounts of peptide
Procedure: as §3, §4

inhibitory effect on endophilin I binding (relative to syndapin I) [6] | peptide concentration needed to inhibit amphiphysin I binding, relative [7] | effect on amphiphysin I binding ([7]; later judged a non-specific artefact of Arg/Pro-rich peptide) | effect on binding to p85 [8] | Substance | inhibition of FM2-10 accumulation in SVs [1] | FM2-10 accumulation in purified SVs (Ca2+-dependent) ([1]; n=3, mean ± s.e.m.) | inhibition of SV turnover ([2]; peptide 250 μM) | SV turnover ([2]; peptide 250 μM, 30 min preincubation, FM2-10 loading with 30 mM KCl) | retrieval efficiency (SV turnover/exocytosis) ([2]; using data from either exocytosis assay, value below one = selective SVE inhibition) | FM2-10 unloading [3] | endocytosis of transferrin (Tfn), RME (U2OS cells) | KCl-evoked Ca2+-dependent glutamate release [4] | Syndapin I binding to DynI-PRD [5]
 |  |  |  | DynI769-784EE: Dynamin I phospho-box mimetic peptide (residues 769-784), EE mutant, tagged with penetratin heptapeptide RRMKWKK (RRMKWKKPAGRREPTSEPTPQRR; listed as Rattus norvegicus) | no significant effect | 90.7±7.1 % of control | less than 20% | 81.1±2.4 % of control | little effect | 82.3±0.6 % of control | without effect | 90.2±9.5 % of control | 
five-fold weaker inhibitory effect | 10 times higher peptide concentrations | inhibitory effect | little effect | RRAPAVPPARPGSR (listed as Rattus norvegicus) [DynI783-796, Peptide corresponding to site 2 and site 3 region of dynamin I PRD] |  |  |  |  |  |  |  |  | greatly reduced in a concentration-dependent manner
